In ChEMBL document CHEMBL3600319, “Chemical constituents isolated from the Mongolian medicinal plant Sophora alopecuroides L. and their inhibitory effects on LPS-induced nitric oxide production in RAW 264.7 macrophages” (Bioorg Med Chem Lett, 2015):

What was measured:
RAW264.7 [1] = assay: Antiinflammatory activity in mouse RAW264.7 cells assessed as inhibition of LPS-stimulated nitric oxide production after 24 hrs by Griess method; format: functional, cell-based; settings: RAW264.7, 24 h
RAW264.7 [2] = assay: Cytotoxicity against mouse RAW264.7 cells assessed as cell viability at IC50 by MTT assay; format: cell-based
RAW264.7 [3] = assay: Potency index, ratio of aminoguanidine IC50 to compound IC50 for mouse RAW264.7 cells; format: functional

| IC50 (RAW264.7 [1]) | SMILES | Activity (RAW264.7 [2]) | Ratio IC50 (RAW264.7 [3]) |
| --- | --- | --- | --- |
| 32.7 µM | C=C(C)C(CCC(C)(C)O)Cc1c2c(c(O)c3c1O[C@H](c1ccc(O)cc1)[C@H]3c1cc(O)cc(O)c1)C(=O)C[C@@H](c1ccc(O)cc1O)O2 (stereo partly specified) | Non-toxic |  |
| 27.8 µM | CC1(C)CCC(Cc2c3c(c(O)c4c2O[C@H](c2ccc(O)cc2)[C@H]4c2cc(O)cc(O)c2)C(=O)C[C@@H](c2ccc(O)cc2O)O3)C(C)(C)O1 (stereo partly specified) | Non-toxic |  |
| 15.9 µM | C=C(C)C(CC=C(C)C)Cc1c2c(c(O)c3c1O[C@@H](c1ccc(O)cc1)[C@H]3c1cc(O)cc(O)c1)C(=O)C[C@@H](c1ccc(O)cc1O)O2 (stereo partly specified) | Non-toxic |  |
| 19 µM | CC(C)=CCc1c2c(c(O)c3c1O[C@H](c1ccc(O)cc1)[C@H]3c1cc(O)cc(O)c1)C(=O)C[C@@H](c1ccc(O)cc1)O2 | Non-toxic |  |
| 7.3 µM | CC(C)=CCc1c2c(c(O)c3c1O[C@H](c1ccc(O)cc1)[C@H]3c1cc(O)cc(O)c1)C(=O)C[C@@H](c1ccc(O)cc1O)O2 | Non-toxic | 3 |
| 10.7 µM | CC(C)=CCC1Cc2c(cc(O)c3c2O[C@H](c2ccc(O)cc2O)CC3=O)OC1(C)C (stereo partly specified) | Non-toxic |  |
| 16.1 µM | C=CC(C)(C)c1c(OC)cc(O)c2c(=O)c3c(CC=C(C)C)c(O)c(O)cc3oc12 [CUDRAXANTHONE D] | Non-toxic |  |
| 26.6 µM | C=C(C)C(CC=C(C)C)Cc1c(O)cc(OC)c2c1O[C@H](c1ccc(O)cc1O)CC2=O (stereo partly specified) [KURARINONE] | Non-toxic |  |
| > 50 µM | Oc1ccc([C@@H]2c3c(O)cc(O)cc3[C@H]3[C@H](c4ccc(O)cc4)c4c(O)cc(O)cc4[C@@H]23)cc1 [PALLIDOL] | Non-toxic |  |
| 26.3 µM | CC(C)=CCc1c(O)cc(O)c2c1OC(c1ccc(O)cc1)CC2=O (stereo unspecified) [SOPHORAFLAVANONE B] | Non-toxic |  |
| 10.9 µM | C=C(C)[C@H](CC=C(C)C)Cc1c(O)cc(O)c2c1O[C@H](c1ccc(O)cc1O)CC2=O [SOPHORAFLAVANONE G] | Non-toxic |  |
| > 50 µM | OC[C@H]1O[C@@H](Oc2ccc3c(c2)OC[C@H]2c4cc5c(cc4O[C@@H]32)OCO5)[C@H](O)[C@@H](O)[C@@H]1O [TRIFOLIRHIZIN] | Non-toxic |  |

| SMILES | IC50 (RAW264.7 [1]) | Activity (RAW264.7 [2]) | Ratio IC50 (RAW264.7 [3]) |
| --- | --- | --- | --- |
| N=C(N)NN [PIMAGEDINE] | 20.6 µM |  |  |
